Test results published in patent US9095565B2, “Methods for treating blood disorders” (Phoenicia Biosciences, Inc., priority 2006, dated 2015).

Legend:
[1] = system: Erythroid colonies (BFU-E); experiment: Experiment 2: erythroid colonies (BFU-E) cultured from patients with beta thalassemia; format: cell-based, human; settings: optimal panel of growth factors
Description: (§1) Erythroid burst-forming units (BFU-E) (erythroid progenitors) and colony-forming units granulocyte-macrophage (CFU-GM) (myeloid colonies) were cultured in semi-solid or in two-phase suspension media, with or without hematopoietic growth factors at high levels (e.g., erythropoietin at 3 U/ml) or reduced levels (BFU-E cell proliferation was evaluated by enumeration in colonies developing in the presence of reduced amounts of erythropoietin (0.5 U/ml) rather than 3 U (or 3000 mU)/ml, which is standard for these experimental systems), from cord blood or the peripheral blood of several types of humans. Experiments were carried out on samples derived from 1) β-thalassemia patients who expressed variable levels of fetal globin at baseline (and in untreated control cultures) and represent a variety of potential individual responses, 2) from normal umbilical cord blood samples, which express 40-50% fetal globin at baseline (and in untreated control cultures), 3) from CD34+ cells isolated from normal adult peripheral blood, which expressed low levels of fetal globin in untreated control cultures and at baseline; and 4) from peripheral blood of patients with sickle cell disease who were receiving treatment with hydroxyurea. These biological samples provide a range of potential difficulty in stimulating fetal globin expression in human patients.
Erythroid colonies were cultured from patients with beta thalassemia, either without any test compounds (Control), only an optimal panel of hematopoietic growth factors, or with one of the test compounds M, P, T, 2-methyl-1-benzofuran-4-carboxylic acid, V, W, X, Y, AK, AC, or AI. […] Colony numbers were increased above the control cultures (% BFU-E/Control) by anywhere from 25% to 230%. Each of the listed test compounds was tested in at least 5 different patients' blood and the differences were statistically significant.

[2] = system: cells expressing fetal globin (F-cells); experiment: Experiment 1: proportion of F-cells in hematopoietic colonies by FACScan; format: cell-based, human; settings: same low concentrations as for fetal globin mRNA induction
Description: as §1
Hematopoietic colonies were enumerated with or without (+/−) the test compounds, and compared to colonies which developed in the presence of hematopoietic growth factors alone from the same subject (untreated control colonies), and proportions of cells expressing fetal globin (F-cells) were analyzed by FACScan analysis.

[3] = system: γ-globin mRNA; experiment: γ-globin mRNA by RT-PCR in erythroid colonies cultured from cord blood; format: cell-based, human; settings: for Concentration required: increase in fetal globin mRNA, erythroid colonies from cord blood; for No. of Positive responses: positive cultures/cultures tested; for fetal globin induction: 3 cultures
Description: γ-globin mRNA was analyzed in control and treated erythroid colonies cultured from cord blood, by RT-PCR.

[4] = system: BFU-E; experiment: BFU-E cultured from cord blood; format: cell-based, human
Description: as §1
In a related study, BFU-E cultured from cord blood, was tested with or without compound M, P, R, T, W, Y, Z, AI, F, or 3-(5-chlorothien-3-yl)acrylic acid.

[5] = system: γ globin promoter; experiment: β/γ-globin promoter driven reporter gene assay; format: cell-based; settings: Table 2
[6] = system: myeloid colonies; experiment: Experiment 3: myeloid colonies in cord blood cultured without added growth factors; format: cell-based, human; settings: no added growth factors
Description: as §1
Control colonies were established in cultures with no added growth factors to support myelopoiesis, in Iscove's Modified Dulbecco's Media (IMDM) methylcellulose media with charcoal-absorbed fetal bovine serum, beta mercaptoethanol, BSA.

[7] = system: fetal globin mRNA; experiment: Fetal globin induction in phlebotomized anemic baboons; format: in vivo, baboon; settings: Baboon 5002, 50 mg/kg
Description: Juvenile baboons were catheterized with venous and arterial catheters, and were phlebotomized a set amount of blood daily to maintain anemia with a hemoglobin level of 7.0-7.5 g/dl, from a baseline normal hemoglobin level of (12-13 g/dl). Normal saline was infused to replace the amount of blood withdrawn. This degree of phlebotomy exchanges the blood volume every 10-20 days.
Fetal globin mRNA was analyzed at baseline anemia before and following administration of test compounds. Globin chain protein synthesis confirmed the mRNA findings.
Following establishment of the stable level of anemia, a test compound was administered once/day, either intravenously or orally, and blood was withdrawn through the arterial catheter for analysis of globin mRNA or for analysis of the test compound in the plasma by HPLC-MS. Pharmacokinetic profiles were established from the plasma levels and oral bioavailability (comparing area under the curve between IV and oral plasma levels) was determined for the test compounds.
In anemic Baboon 5002, baseline fetal globin mRNA, assayed by RNAse protection, was 26% of non-alpha globin. With treatment with compound Y at 5 mg/kg/dose, fetal globin mRNA increased to 48% of non-alpha globin, an 85% increase over the baseline level. Treatment with compound AK at 50 mg/kg induced a 51% fetal globin mRNA increase, a 96% increase over the baseline level. […] The human equivalent dose is 20% of these doses, or 1 mg/kg, 10 mg/kg, or 8 mg/kg respectively. Thus, these 3 compounds are highly suitable for pharmaceutical compositions at doses that human patients can readily tolerate.

[8] = system: F-cell; experiment: Related study: in vitro F cell production; format: cell-based
Description: (§2) In a related study, the relative luciferase reporter gene induction, γ-globin gene induction, and F cell production was tested for several of the candidate compounds. The relative in vitro γ-globin gene reporter stimulation for the tested compounds was as follows: compound P>M>W=R=Y. The relative in vitro γ-globin gene induction for the tested compounds was as follows: P>R=M>Y>W>. The relative in vitro F-cell production was as follows: W>Y>R>M>P. The relative potency for F-cell production was as follows: R>M>Y>P>W.

[9] = system: γ-globin gene; experiment: Related study: relative in vitro γ-globin gene induction; format: cell-based
Description: as §2

[10] = system: γ-globin gene reporter; experiment: Related study: relative luciferase reporter gene induction; format: cell-based
Description: as §2

[11] = system: Erythroid colonies; experiment: Example 7: erythroid colonies cultured with low Erythropoietin (0.5 U/ml) and compound Y enantiomers; format: cell-based, human
Description: The proliferative activity of compound Y—S enantiomer was tested in vitro in erythroid colonies cultured from peripheral blood of 3 sources of individuals: sickle cell anemia patients who were taking Hydroxyurea and have suppression of their endogenous erythropoiesis, a normal adult subject, and two cord blood samples. The erythroid cultures were established with low concentrations of Erythropoietin (0.5 U/ml) alone and with one or the other enantiomer of compound Y or the racemic mixture, or with high concentrations of EPO (3 Units/ml, =3000 mU/ml, 100-fold the normal physiologic concentration).

Compound: Cc1cc2c(C(=O)O)cccc2o1 [2-methyl-1-benzofuran-4-carboxylic acid]
- number of erythroid colonies compared to matched control cultures [1]: increased the number of colonies
- proportion of F-cells above the percentage in untreated controls [2]: significant increases
- Concentration required [3]: 5 µM
- No. of Positive responses [3]: 6/6

Compound: O=C(O)C=Cc1csc(Cl)c1 [3-(5-chlorothien-3-yl)acrylic acid]
- numbers of BFU-E colonies compared to controls [4]: increased numbers of colonies
- proportion of F-cells above the percentage in untreated controls [2]: significant increases
- Concentration required [3]: 30 µM

Compound: O=C(O)Cn1ccc(=O)cc1 [AA]
- % γ globin promoter induction (above untreated control) [5]: ** (‘**’ indicates a 100%-200% increase)

Compound: O=C(O)C1CCc2snnc2C1 (stereo not drawn) [AB]
- % γ globin promoter induction (above untreated control) [5]: ** (‘**’ indicates a 100%-200% increase)

Compound: O=C(O)Cn1cc(Cl)c([N+](=O)[O-])n1 [AC]
- number of erythroid colonies compared to matched control cultures [1]: increased the number of colonies
- % γ globin promoter induction (above untreated control) [5]: ** (‘**’ indicates a 100%-200% increase)

Compound: Cn1cnnc1SCC(=O)O [AD]
- % γ globin promoter induction (above untreated control) [5]: ** (‘**’ indicates a 100%-200% increase)

Compound: O=C(O)CSc1nnc(S)s1 [AE]
- % γ globin promoter induction (above untreated control) [5]: ** (‘**’ indicates a 100%-200% increase)

Compound: O=C(CC1(C(=O)O)CCCCC1)c1cccs1 [AF]
- % γ globin promoter induction (above untreated control) [5]: * (‘*’ indicates a 80-100% increase)

Compound: O=C1CC(C(=O)O)Cc2ccsc21 (stereo not drawn) [AG]
- % γ globin promoter induction (above untreated control) [5]: ** (‘**’ indicates a 100%-200% increase)

Compound: Cc1cc(SCC(=O)O)cs1 [AH]
- % γ globin promoter induction (above untreated control) [5]: ** (‘**’ indicates a 100%-200% increase)

Compound: CCOc1ccc(C(=O)O)cc1 [AI]
- production of myeloid colonies compared to untreated control [6]: stimulated production of myeloid colonies
- numbers of BFU-E colonies compared to controls [4]: increased numbers of colonies
- number of erythroid colonies compared to matched control cultures [1]: increased the number of colonies
- % γ globin promoter induction (above untreated control) [5]: ** (‘**’ indicates a 100%-200% increase)

Compound: O=C(O)CCC1(c2ccc(Cl)s2)CCCCC1 [AJ]
- % γ globin promoter induction (above untreated control) [5]: ** (‘**’ indicates a 100%-200% increase)

Compound: O=[N+]([O-])c1cc(S(=O)(=O)O)ccc1F [AK]
- increase over the baseline level of fetal globin mRNA [7]: 96%
- fetal globin mRNA (% of non-alpha globin) ([7]; baseline 26%): 51%
- number of erythroid colonies compared to matched control cultures [1]: increased the number of colonies
- % γ globin promoter induction (above untreated control) [5]: ** (‘**’ indicates a 100%-200% increase)

Compound: O=C(O)/C=C/c1ccnc2ccccc12 [F]
- numbers of BFU-E colonies compared to controls [4]: increased numbers of colonies
- % γ globin promoter induction (above untreated control) [5]: *** (‘***’ indicates an over 200% increase of γ globin promoter induction over untreated controls)
- proportion of F-cells above the percentage in untreated controls [2]: significant increases

Compound: O=C(O)CN1C(=O)S/C(=C/c2ccccc2O)C1=O [K]
- % γ globin promoter induction (above untreated control) [5]: * (‘*’ indicates a 80-100% increase)

Compound: O=C(O)CNc1ccc(SC(F)(F)F)cc1 [N]
- % γ globin promoter induction (above untreated control) [5]: *** (‘***’ indicates an over 200% increase of γ globin promoter induction over untreated controls)
- proportion of F-cells above the percentage in untreated controls [2]: significant increases

Compound: COc1cc(OC)cc(Oc2ccccc2C(=O)O)c1 [O]
- % γ globin promoter induction (above untreated control) [5]: * (‘*’ indicates a 80-100% increase)

Compound: COc1cc(OC)cc(SC(C(=O)O)C(C)C)c1 (stereo not drawn) [Q]
- % γ globin promoter induction (above untreated control) [5]: ** (‘**’ indicates a 100%-200% increase)

Compound: COc1ccc(C(N)CC(=O)O)cc1OC (stereo not drawn) [R]
- relative in vitro F-cell production (rank order) [8]: W>Y>R>M>P
- relative potency for F-cell production (rank order) [8]: R>M>Y>P>W
- numbers of BFU-E colonies compared to controls [4]: increased numbers of colonies
- relative in vitro γ-globin gene induction (rank order) [9]: P>R=M>Y>W
- % γ globin promoter induction (above untreated control) [5]: *** (‘***’ indicates an over 200% increase of γ globin promoter induction over untreated controls)
- proportion of F-cells above the percentage in untreated controls [2]: significant increases
- relative in vitro γ-globin gene reporter stimulation (rank order) [10]: P>M>W=R=Y

Compound: O=C(O)Cc1[nH]c(=O)cc(O)c1C(=O)O [S]
- % γ globin promoter induction (above untreated control) [5]: ** (‘**’ indicates a 100%-200% increase)

Compound: O=C1CSc2ccc(C(=O)O)cc2N1 [T]
- numbers of BFU-E colonies compared to controls [4]: increased numbers of colonies
- number of erythroid colonies compared to matched control cultures [1]: increased the number of colonies
- % γ globin promoter induction (above untreated control) [5]: ** (‘**’ indicates a 100%-200% increase)
- proportion of F-cells above the percentage in untreated controls [2]: significant increases

Compound: COc1cccc(SCC(=O)O)c1 [V]
- number of erythroid colonies compared to matched control cultures [1]: increased the number of colonies
- % γ globin promoter induction (above untreated control) [5]: ** (‘**’ indicates a 100%-200% increase)
- proportion of F-cells above the percentage in untreated controls [2]: significant increases
- Concentration required [3]: 5 µM
- No. of Positive responses [3]: 6/6

Compound: O=C(O)c1ccc(-c2ccccc2[N+](=O)[O-])o1 [X]
- production of myeloid colonies compared to untreated control [6]: stimulated production of myeloid colonies
- number of erythroid colonies compared to matched control cultures [1]: increased the number of colonies
- % γ globin promoter induction (above untreated control) [5]: ** (‘**’ indicates a 100%-200% increase)
- proportion of F-cells above the percentage in untreated controls [2]: significant increases

Compound: COc1cc(OC)nc(S[C@@H](C(=O)O)C(C)C)n1 [Y + R]
- fetal globin induction [3]: demonstrated fetal globin inducing action
- Concentration required [3]: 5 µM
- No. of Positive responses [3]: 2/3
- erythroid cell proliferation [11]: does not stimulate cell proliferation

Compound: COc1cc(OC)nc(S[C@H](C(=O)O)C(C)C)n1 [Y − S]
- fetal globin induction [3]: did not induce fetal globin in 2 of (the same) 3 cultures
- Concentration required [3]: 5 µM
- No. of Positive responses [3]: 1/3
- erythroid cell proliferation [11]: stimulates erythroid cell proliferation significantly
- range of more erythroid colonies than in the racemic mixture ([11]; low EPO 0.5 U/ml): 38-50%
- mean more erythroid colonies than in the racemic mixture ([11]; low EPO 0.5 U/ml, same concentration): 45%

Compound: O=C(O)c1cccc(Cn2cc(Cl)cn2)c1 [Z]
- numbers of BFU-E colonies compared to controls [4]: increased numbers of colonies
- % γ globin promoter induction (above untreated control) [5]: ** (‘**’ indicates a 100%-200% increase)
- proportion of F-cells above the percentage in untreated controls [2]: significant increases

Compound: EPO: Erythropoietin, high concentration 3 Units/ml in erythroid cultures
- mean more colonies than cultures with racemic mix or R enantiomer in low EPO ([11]; high EPO 3 Units/ml): 35%
- range of more colonies than cultures with racemic mix or R enantiomer in low EPO ([11]; high EPO 3 Units/ml): 25-45%
